Ten molecules from patent US11098016B2, “Indazole derivatives useful as glucagon receptor antagonists” (JANSSEN PHARMACEUTICA NV, priority 2016, dated 2021) can be followed below.

The target in one assay is T1, human GCGR (Homo sapiens, UniProt P47871).
T1 construct: expressed in transfected cells; host or cells: HEK293 (hGluc-1HEK), pcDNA3.1, G418 selection
T1 sequence (P47871 26-477): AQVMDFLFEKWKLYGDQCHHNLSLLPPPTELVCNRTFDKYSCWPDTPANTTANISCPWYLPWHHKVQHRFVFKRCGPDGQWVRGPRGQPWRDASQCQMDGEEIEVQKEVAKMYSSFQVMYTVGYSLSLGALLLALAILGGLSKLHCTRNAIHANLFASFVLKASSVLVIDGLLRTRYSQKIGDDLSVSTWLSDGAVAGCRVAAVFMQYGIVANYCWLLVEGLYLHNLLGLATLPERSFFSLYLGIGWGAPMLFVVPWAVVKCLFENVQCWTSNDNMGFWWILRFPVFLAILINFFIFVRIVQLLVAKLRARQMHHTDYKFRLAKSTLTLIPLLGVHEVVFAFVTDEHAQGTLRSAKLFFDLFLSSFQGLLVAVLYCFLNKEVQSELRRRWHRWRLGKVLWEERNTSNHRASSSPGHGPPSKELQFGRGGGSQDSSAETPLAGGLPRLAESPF
Put plainly: Cellular functional assay, cAMP readout: inhibition of glucagon stimulated cAMP. The format is cell-based.
Settings: not given
As to the method: IC50 Values in Cellular Functional Assays: cAMP Readout
Full-length human GCGR (Accession Number: NM000160) subcloned into pcDNA3.1 was stably transfected into HEK293 cells (hGluc-1HEK) and maintained under G418 selection (500 μg/mL). Cell cultures were maintained in DMEM/F12 media supplemented with 10% FBS and 1% GlutaMax™ Supplement (Available from ThermoFisher Scientific, catalog #35050061). Glucagon stimulated cAMP was quantified using LANCE technology as per manufacturer instructions. On the day of the experiment, spent media was removed and cells were washed with Hank's Buffered Saline solution (HBSS), and cells harvested with non-enzymatic cell dissociation solution, then washed once with HBSS. Cells were re-suspended in stimulation buffer at a concentration of 0.83×10^6 cells/ml and cAMP detection antibody was added. 6 μl/well of this solution was then dispensed in a 384 well plate (cell density 5000 cells/well). Test compound was serially diluted in DMSO and 50 nl were dispensed on top of the cell solution and allowed to incubate for 30 minutes. 6 μl of a 2× glucagon solution (final concentration in assay 100 pM) was then added and the reaction was terminated after 5 minutes with the addition of detection mix. The resulting mixture was incubated, protected from light for 1.5 h. cAMP levels were quantified by TR-FRET in an EnVision instrument against a known standard. IC50's were generated by using a non-linear regression macro driven in Excel and converted to Ki values.
The molecule `COCCC(c1ccc(C(=O)NCCC(=O)O)cc1)n1cc2cc(-c3ccc(C(F)(F)F)cc3)ccc2n1` (stereo not shown) [Compound 202] displayed a Ki of 1100 nM.
Regarding `O=C(O)CCNC(=O)c1ccc(C(CCc2ccccc2)n2cc3cc(-c4ccc(C(F)(F)F)cc4)ccc3n2)cc1` (stereo not shown) [Compound 104], the Ki is 145 nM. This Ki is about 7.6-fold lower than that of the molecule before.
Same read-out and setting: the result for `Cc1cc(Cl)ccc1-c1ccc2nn(C(CCC3CCCCC3)c3ccc(C(=O)NCCC(=O)O)nc3)cc2c1` (stereo not shown) [Compound 184] reads 71 nM; that for `CC(C)CC(c1ccc(CNCCC(=O)O)cc1)n1ncc2cc(-c3cc(Cl)cc(Cl)c3)ccc21` (stereo not shown) [Compound 118, 3-((4-(1-(5-(3,5-Dichlorophenyl)-1H-indazol-1-yl)-3-methylbutyl)benzyl)amino)propanoic Acid], 2250 nM; that for `O=C(O)CCNC(=O)c1ccc(C(CCc2ccccc2)n2ncc3cc(-c4ccc(C(F)(F)F)cc4)ccc32)cc1` (stereo not shown) [Compound 142], 850 nM.
`Cc1cc(C(F)(F)F)ccc1-c1ccc2c(cnn2C(CC(C)C)c2ccc(CNCCC(=O)O)cc2)c1` (stereo not shown) [Compound 84, 3-((4-(3-Methyl-1-(5-(2-methyl-4-(trifluoromethyl)phenyl)-1H-indazol-1-yl)butyl)benzyl)amino)propanoic Acid] registered a Ki of 85 nM.
For the molecule `CC(C)CC(c1ccc(CNCCC(=O)O)cc1)n1ncc2cc(-c3ccc(OC(F)(F)F)cc3)ccc21` (stereo not shown) [Compound 10, 3-((4-(3-Methyl-1-(5-(4-(trifluoromethoxy)phenyl)-1H-indazol-1-yl)butyl)benzyl)amino)propanoic Acid], the inhibitory constant (Ki) stood at 285 nM. This Ki lies about 3.4-fold higher than the previous one.
In the case of `COc1ccc(-c2ccc3c(cnn3C(CC(C)C)c3ccc(CNCCC(=O)O)cc3)c2)cc1` (stereo not shown) [Compound 38, 3-((4-(1-(5-(4-Methoxyphenyl)-1H-indazol-1-yl)-3-methylbutyl)benzyl)amino)propanoic Acid], the Ki was determined as 650 nM.
Same read-out and setting: next, `O=C(O)CCNC(=O)c1ccc(C(CCC2CCCCC2)n2cc3cc(-c4ccc(C(F)(F)F)cc4)ccc3n2)cn1` (stereo not shown) [Compound 186]: 275 nM.

The next assay relates to glucagon receptor. Put plainly: Glucagon challenge in vivo assay measuring blood glucose (normal dog glucagon challenge test). To be noted: male beagle dogs; 10 mg/kg oral gavage. The procedure:
Glucagon Challenge In Vivo Assay Measuring Blood Glucose
The efficacy of a glucagon receptor antagonist was evaluated using a normal dog glucagon challenge test. Male beagle dogs were overnight fasted prior to the study. Test compound (at 3 mg/kg and 10 mg/kg for Compound #196 and at 10 mg/kg for Compounds #180, #248 and #253) or vehicle (0.5% hydroxypropyl methylcellulose) was dosed via oral gavage. Ninety minutes later, the dogs (1.5 years old, ˜9 Kg) were submitted to a glucagon challenge test by a single intramuscular injection of glucagon (Glucagon, rDNA origin, Eli Lilly, Indianapolis, Ind.) at dose of […]. Blood glucose levels were determined at times −10 min, 0 min (on challenge), 10 min, 20 min, 30 min, and 60 min after glucagon injection.
Consider `Cc1c(-c2ccc(C(F)(F)F)cc2Cl)ccc2nn([C@@H](CC(C)C)c3ccc(C(=O)NCCC(=O)O)cc3)cc12` [Compound 180, 3-[[4-[(1S)-1-[5-[2-Chloro-4-(trifluoromethyl)phenyl]-4-methyl-indazol-2-yl]-3-methyl-butyl]benzoyl]amino]propanoic Acid], for which the “blood glucose levels during glucagon challenge time compared with vehicle treated group” value is given as “markedly reduced blood glucose levels”.
